In series [1] the target is T1, Disintegrin and metalloproteinase domain-containing protein 17 (Homo sapiens, UniProt P78536). In words: Inhibition of TACE.
Series [2] concerns the target Matrix metalloproteinase-9 (Homo sapiens, UniProt P14780). In words: Inhibition of MMP9.
The target in another series is T2, Interstitial collagenase (Homo sapiens, UniProt P03956).
T2 sequence (P03956 whole entry): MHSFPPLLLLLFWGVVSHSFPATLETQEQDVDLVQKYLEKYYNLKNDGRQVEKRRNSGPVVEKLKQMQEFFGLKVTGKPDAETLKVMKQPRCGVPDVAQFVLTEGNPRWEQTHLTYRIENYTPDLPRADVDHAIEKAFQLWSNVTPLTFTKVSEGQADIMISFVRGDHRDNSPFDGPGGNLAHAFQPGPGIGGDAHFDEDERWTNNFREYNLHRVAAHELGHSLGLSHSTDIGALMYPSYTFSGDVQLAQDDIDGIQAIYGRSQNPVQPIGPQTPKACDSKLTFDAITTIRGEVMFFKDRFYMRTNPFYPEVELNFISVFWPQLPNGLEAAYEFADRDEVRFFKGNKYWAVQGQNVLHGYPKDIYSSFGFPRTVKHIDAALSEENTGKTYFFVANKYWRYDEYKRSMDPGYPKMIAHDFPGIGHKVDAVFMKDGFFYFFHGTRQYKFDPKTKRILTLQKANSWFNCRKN
In words: Inhibition of MMP1.

Series [3] deals with 72 kDa type IV collagenase (Homo sapiens, UniProt P08253). In words: Inhibition of MMP2.
Chain of 72 kDa type IV collagenase (P08253 whole entry): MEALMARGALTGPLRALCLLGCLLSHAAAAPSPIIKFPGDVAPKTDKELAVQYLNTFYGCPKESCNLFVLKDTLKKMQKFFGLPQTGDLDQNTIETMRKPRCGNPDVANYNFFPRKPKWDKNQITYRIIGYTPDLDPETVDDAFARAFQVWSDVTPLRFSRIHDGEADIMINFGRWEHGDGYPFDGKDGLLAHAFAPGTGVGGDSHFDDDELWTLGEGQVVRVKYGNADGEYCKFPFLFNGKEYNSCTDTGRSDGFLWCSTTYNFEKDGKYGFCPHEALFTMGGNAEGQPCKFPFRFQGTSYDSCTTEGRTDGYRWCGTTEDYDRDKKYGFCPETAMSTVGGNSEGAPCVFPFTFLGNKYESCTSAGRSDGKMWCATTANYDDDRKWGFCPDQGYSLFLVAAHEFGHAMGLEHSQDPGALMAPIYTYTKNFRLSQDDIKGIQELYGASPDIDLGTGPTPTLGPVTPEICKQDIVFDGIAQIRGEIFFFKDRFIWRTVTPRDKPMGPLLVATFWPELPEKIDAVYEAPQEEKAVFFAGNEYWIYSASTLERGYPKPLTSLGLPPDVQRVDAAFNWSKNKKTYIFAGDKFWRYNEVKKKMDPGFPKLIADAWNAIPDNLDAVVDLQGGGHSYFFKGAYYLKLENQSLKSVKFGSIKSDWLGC
A further series has as its target Stromelysin-1 (Homo sapiens, UniProt P08254). In words: Inhibition of MMP3.
Another series has as its target T3, Matrilysin (Homo sapiens, UniProt P09237).
T3 sequence (P09237 whole entry): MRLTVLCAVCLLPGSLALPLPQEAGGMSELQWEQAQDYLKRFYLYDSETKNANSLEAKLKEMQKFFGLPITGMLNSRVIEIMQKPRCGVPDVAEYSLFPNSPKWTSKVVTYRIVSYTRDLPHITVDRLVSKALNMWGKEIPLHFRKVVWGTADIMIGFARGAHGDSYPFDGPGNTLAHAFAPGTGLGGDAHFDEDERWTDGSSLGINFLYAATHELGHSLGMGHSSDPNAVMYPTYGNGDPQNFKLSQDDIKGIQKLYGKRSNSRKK
In words: Inhibition of MMP7.

The target of the next series is Collagenase 3 (Homo sapiens, UniProt P45452). In words: Inhibition of MMP13.
For series [4], the target named is Matrix metalloproteinase-14 (Homo sapiens, UniProt P50281). The experiment in a line: Inhibition of MMP14.
For series [5], the target named is T4, Disintegrin and metalloproteinase domain-containing protein 10 (Homo sapiens, UniProt O14672).
T4 sequence (O14672 whole entry): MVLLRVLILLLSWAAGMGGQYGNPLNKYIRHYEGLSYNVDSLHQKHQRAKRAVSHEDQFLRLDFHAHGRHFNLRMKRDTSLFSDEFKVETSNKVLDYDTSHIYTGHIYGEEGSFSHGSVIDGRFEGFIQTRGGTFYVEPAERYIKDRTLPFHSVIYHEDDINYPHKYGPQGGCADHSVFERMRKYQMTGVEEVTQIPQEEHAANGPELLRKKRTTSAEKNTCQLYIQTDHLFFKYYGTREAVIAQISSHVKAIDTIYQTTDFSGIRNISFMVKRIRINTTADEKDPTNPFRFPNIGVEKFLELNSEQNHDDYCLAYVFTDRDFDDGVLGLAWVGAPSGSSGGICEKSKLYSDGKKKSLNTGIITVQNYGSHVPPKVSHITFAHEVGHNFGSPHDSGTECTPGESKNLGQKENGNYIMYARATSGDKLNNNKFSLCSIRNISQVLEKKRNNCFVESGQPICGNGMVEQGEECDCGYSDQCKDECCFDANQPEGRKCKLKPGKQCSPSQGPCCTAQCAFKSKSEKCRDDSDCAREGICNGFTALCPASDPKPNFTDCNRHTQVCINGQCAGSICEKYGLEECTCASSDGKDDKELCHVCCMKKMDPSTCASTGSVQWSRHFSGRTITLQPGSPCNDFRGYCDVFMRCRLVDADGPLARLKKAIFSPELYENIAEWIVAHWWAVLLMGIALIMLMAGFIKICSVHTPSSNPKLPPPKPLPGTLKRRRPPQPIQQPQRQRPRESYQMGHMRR
In words: Inhibition of ADAM10.

Series [6] deals with T1, Disintegrin and metalloproteinase domain-containing protein 17. The experiment in a line: Inhibition of TACE at 500 nM.
Series [7] in a line: AUC in Sprague-Dawley rat at 10 mg/kg, po. The format is ADME, organism-based. Also noted: dose 10 mg/kg, route oral. As to conditions: plasma.
Series [8] in a line: Bioavailability in Sprague-Dawley rat at 10 mg/kg, po. Format: ADME, organism-based. As to conditions: in vivo.
The nature of series [9]: Clearance in Sprague-Dawley rat at 3 mg/kg, iv. The format is ADME, organism-based. Also noted: dose 3 mg/kg, route intravenous. As to conditions: in vivo.
A short description of series [10]: AUC in Sprague-Dawley rat at 3 mg/kg, iv. Format: ADME, organism-based. As to conditions: plasma. Also noted: dose 3 mg/kg, route intravenous.
Series [11] can be described thus: Half life in Sprague-Dawley rat at 10 mg/kg, po. The format is ADME, organism-based. Also noted: dose 10 mg/kg, route oral. As to conditions: in vivo.

T1 sequence (P78536 whole entry, the tested form may be a part): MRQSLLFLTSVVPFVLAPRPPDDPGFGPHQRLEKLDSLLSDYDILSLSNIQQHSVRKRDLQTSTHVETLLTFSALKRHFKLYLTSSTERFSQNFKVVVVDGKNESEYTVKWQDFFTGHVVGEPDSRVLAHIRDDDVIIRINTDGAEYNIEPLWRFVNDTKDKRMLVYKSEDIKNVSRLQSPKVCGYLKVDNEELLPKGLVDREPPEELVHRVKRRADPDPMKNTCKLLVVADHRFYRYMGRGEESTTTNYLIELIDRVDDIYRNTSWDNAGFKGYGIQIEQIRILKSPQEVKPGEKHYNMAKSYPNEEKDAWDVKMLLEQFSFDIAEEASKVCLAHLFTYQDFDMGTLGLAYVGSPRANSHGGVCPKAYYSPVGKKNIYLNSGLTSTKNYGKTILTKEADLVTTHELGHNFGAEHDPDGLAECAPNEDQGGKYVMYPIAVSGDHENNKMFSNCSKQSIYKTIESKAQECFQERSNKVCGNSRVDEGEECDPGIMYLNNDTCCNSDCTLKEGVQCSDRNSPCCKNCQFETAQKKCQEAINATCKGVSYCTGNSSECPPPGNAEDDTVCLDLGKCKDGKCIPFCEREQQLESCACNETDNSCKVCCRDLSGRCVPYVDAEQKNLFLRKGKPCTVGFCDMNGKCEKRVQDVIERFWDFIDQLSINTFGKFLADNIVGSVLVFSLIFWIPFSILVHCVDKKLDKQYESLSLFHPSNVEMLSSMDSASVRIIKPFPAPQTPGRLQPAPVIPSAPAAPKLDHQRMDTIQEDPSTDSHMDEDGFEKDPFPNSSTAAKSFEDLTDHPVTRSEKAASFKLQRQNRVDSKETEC
Chain of Matrix metalloproteinase-9 (P14780 whole entry): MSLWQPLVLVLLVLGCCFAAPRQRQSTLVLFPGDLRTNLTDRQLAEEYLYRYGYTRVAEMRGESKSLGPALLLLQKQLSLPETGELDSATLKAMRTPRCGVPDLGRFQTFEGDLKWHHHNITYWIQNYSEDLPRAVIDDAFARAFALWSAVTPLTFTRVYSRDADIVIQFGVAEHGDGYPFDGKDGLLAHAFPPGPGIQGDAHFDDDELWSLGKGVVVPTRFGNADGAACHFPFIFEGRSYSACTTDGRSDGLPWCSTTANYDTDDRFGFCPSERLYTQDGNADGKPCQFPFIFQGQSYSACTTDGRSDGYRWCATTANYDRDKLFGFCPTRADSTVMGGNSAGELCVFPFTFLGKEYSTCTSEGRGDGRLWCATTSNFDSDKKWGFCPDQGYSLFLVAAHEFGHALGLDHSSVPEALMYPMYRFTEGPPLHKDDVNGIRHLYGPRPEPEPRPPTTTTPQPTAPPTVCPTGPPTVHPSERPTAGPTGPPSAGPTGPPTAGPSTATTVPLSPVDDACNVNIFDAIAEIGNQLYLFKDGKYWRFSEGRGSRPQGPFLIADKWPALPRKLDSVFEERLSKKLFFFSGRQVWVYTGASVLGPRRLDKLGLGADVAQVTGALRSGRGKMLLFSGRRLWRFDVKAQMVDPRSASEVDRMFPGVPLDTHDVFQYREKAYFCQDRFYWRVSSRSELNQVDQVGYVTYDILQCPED
Chain of Stromelysin-1 (P08254 whole entry): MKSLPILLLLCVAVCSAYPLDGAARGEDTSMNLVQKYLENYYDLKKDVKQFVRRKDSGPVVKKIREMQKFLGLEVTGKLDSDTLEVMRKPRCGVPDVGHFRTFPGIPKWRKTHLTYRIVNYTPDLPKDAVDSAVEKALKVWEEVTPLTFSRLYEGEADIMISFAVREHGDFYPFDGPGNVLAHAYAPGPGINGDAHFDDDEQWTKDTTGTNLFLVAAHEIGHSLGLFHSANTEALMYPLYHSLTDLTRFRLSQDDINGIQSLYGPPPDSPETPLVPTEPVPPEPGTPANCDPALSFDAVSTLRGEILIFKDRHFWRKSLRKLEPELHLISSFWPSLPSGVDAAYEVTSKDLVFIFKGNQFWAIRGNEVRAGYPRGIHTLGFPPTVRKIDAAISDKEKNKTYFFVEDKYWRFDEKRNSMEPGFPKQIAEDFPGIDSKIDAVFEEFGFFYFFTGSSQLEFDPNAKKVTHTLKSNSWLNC

As for `O=C(NCc1ccc(Cc2cccc(Cl)c2)s1)[C@H](O)[C@@H](O)C(=O)N1CCC[C@@H]1c1cccc(Cl)c1`, in series [1], the Ki was 48 nM. Consider `O=C(NCc1ccc(-n2cccn2)cc1)[C@H](O)[C@@H](O)C(=O)N1CCCC1c1cccc(Cl)c1` (mixture of isomers), for which the inhibitory constant (Ki) in [2] is 11 µM; at Interstitial collagenase, above 100 µM; in series [3] it was 1.9 µM; on Stromelysin-1, 19 µM; at Matrilysin it was 47 µM; at Collagenase 3, 3.5 µM. Further, the inhibitory constant (Ki) in [1] was 4 nM; in series [4] it was 120 nM; in [5] it was 602 nM.

In [1], `Cc1nc2ccccc2n1Cc1ccc(CNC(=O)[C@H](O)[C@@H](O)C(=O)N2CCCC2c2nccs2)s1` (mixture of isomers) displayed a Ki of 9 nM. Compound `Cc1nc2ccccc2n1Cc1ccc(CNC(=O)[C@H](O)[C@@H](O)C(=O)N2CCCC2c2ccncc2)s1` (mixture of isomers) showed an inhibitory constant (Ki) in series [1] of 36 nM.

The compound `O=C(NCc1ccc(-c2csnn2)cc1)[C@H](O)[C@@H](O)C(=O)N1CCCC1c1cccc(Cl)c1` (mixture of isomers) gave a Ki in [1] of 3 nM. The same measure, in the same setting: the value for `O=C(NCc1ccc(Cn2ccnc2)s1)[C@H](O)[C@@H](O)C(=O)N1CCC[C@@H]1c1cccc(Cl)c1` was 37 nM. `O=C(NCc1cccs1)[C@H](O)[C@@H](O)C(=O)N1CCCC1c1cccc(Cl)c1` (stereo partly specified) registered an inhibition in series [6] of 44%. Same read-out and setting: next, `O=C(NCc1ccc(Cc2cccc3ccccc23)s1)[C@H](O)[C@@H](O)C(=O)N1CCC[C@@H]1c1cccc(Cl)c1`: 50%.

Turning to `Cc1nc2ccccc2n1Cc1ccc(CNC(=O)[C@H](O)[C@@H](O)C(=O)N2CCC[C@@H]2c2cccc(Cl)c2)s1`, the Ki in series [1] was 4 nM. Still for that read-out and setting: next, `C[C@H]1CN(c2ccccc2C#N)CCC1CNC(=O)[C@H](O)[C@@H](O)C(=O)N1CCC[C@@H]1c1ccccc1` (stereo partly specified): 315 nM; `O=C(NCc1ccc(-c2ccon2)cc1)[C@H](O)[C@@H](O)C(=O)N1CCC[C@@H]1c1ccccc1`: 8 nM. As to `O=C(NCc1ccc(-n2ccnc2)cc1)[C@H](O)[C@@H](O)C(=O)N1CCCC1c1cccc(Cl)c1` (mixture of isomers), the affinity in [1], expressed as Ki, was 270 nM. Regarding `C[C@@H](NC(=O)[C@H](O)[C@@H](O)C(=O)N1CCC[C@@H]1c1cccc(Cl)c1)c1ccc(-n2cccn2)cc1`, the Ki was 88.4 µM in series [2]; above 100 µM on Interstitial collagenase; 43.6 µM in series [3]; 3.8 µM at Matrilysin; 3.3 µM at Collagenase 3; 0.86 nM in series [1]. In addition, the values for the inhibition constant Ki in [4] and in [5] were 1100 nM and 166 nM, respectively. The AUC in series [7] came to 2.1 µM·h; in [10], 3.1 µM·h. Besides, the bioavailability in [8] amounted to 20%. In series [9], this compound displayed a clearance of 35 mL/min/kg. The half-life in [11] was 36 min. With `O=C(NCc1ccc(-c2ccccc2)cn1)[C@H](O)[C@@H](O)C(=O)N1CCCC1c1cccc(Cl)c1` (mixture of isomers), in series [1], the inhibitory constant (Ki) was 6 nM. On the same count and under the same terms, the value for `O=C(NCc1ccc(Cc2ccccc2Cl)s1)[C@H](O)[C@@H](O)C(=O)N1CCC[C@@H]1c1cccc(Cl)c1` was 9.3 nM; that for `O=C(NCc1ccc(Cn2c(C(F)(F)F)nc3ccccc32)s1)[C@H](O)[C@@H](O)C(=O)N1Cc2ccccc2C1` was 0.2 nM; that for `O=C(NCc1ccc(-c2cccs2)cc1)[C@H](O)[C@@H](O)C(=O)N1CCC[C@@H]1c1ccccc1` was 28 nM. `COc1ccccc1Cc1ccc(CNC(=O)[C@H](O)[C@@H](O)C(=O)N2CCC[C@@H]2c2cccc(Cl)c2)s1` yielded a Ki in series [1] of 3 nM. Turning to `C[C@@H]1CN(c2ccccc2C#N)CCC1CNC(=O)[C@H](O)[C@@H](O)C(=O)N1CCC[C@@H]1c1ccccc1` (stereo partly specified), the Ki in [1] came out at 2 nM.

In [1], `Cc1nc2ccccc2n1Cc1ccc(CNC(=O)[C@H](O)[C@@H](O)C(=O)N2CCC[C@@H]2c2csc(N)n2)s1` gave a Ki of 2 nM.

In series [1], `Cc1nc2ccccc2n1Cc1ccc(CNC(=O)[C@H](O)[C@@H](O)C(=O)N2CCCC2c2cccs2)s1` (mixture of isomers) registered a Ki of 4 nM.

In the case of `N#Cc1ccccc1-c1ccc(CNC(=O)[C@H](O)[C@@H](O)C(=O)N2CCC[C@@H]2c2ccccc2)cc1`, the inhibition constant Ki in [1] was found to be 17 nM.

In the case of `O=C(NCc1ccc(Cc2ccsc2)s1)[C@H](O)[C@@H](O)C(=O)N1CCC[C@@H]1c1cccc(Cl)c1`, the Ki in series [1] worked out at 11 nM. On the same count and under the same terms, next, `O=C(NCc1ccc(-c2nccs2)cc1)[C@H](O)[C@@H](O)C(=O)N1CCCC1c1cccc(Cl)c1` (mixture of isomers): 74 nM; `O=C(NCc1ccc(-c2ccccc2)nc1)[C@H](O)[C@@H](O)C(=O)N1CCCC1c1cccc(Cl)c1` (mixture of isomers): 307 nM; `N#Cc1sccc1-c1ccc(CNC(=O)[C@H](O)[C@@H](O)C(=O)N2CCC[C@@H]2c2ccccc2)cc1`: 2 nM. As for `O=C(NCc1ccc(-c2ccsc2)cc1)[C@H](O)[C@@H](O)C(=O)N1CCC[C@@H]1c1ccccc1`, affinity in series [1] was put at a Ki of 13 nM. Same read-out and setting: the value for `Cc1nc2ccccc2n1Cc1ccc(CNC(=O)[C@H](O)[C@@H](O)C(=O)N2Cc3ccccc3C2)s1` was 0.5 nM; that for `O=C(NCc1ccc(-c2ccncc2)cc1)[C@H](O)[C@@H](O)C(=O)N1CCC[C@@H]1c1ccccc1` was 15 nM; that for `Cc1nc2ccccc2n1Cc1ccc(CNC(=O)[C@H](O)[C@@H](O)C(=O)N2CCCC2c2cccnc2)s1` (mixture of isomers) was 12 nM. With `N#Cc1ccccc1N1CCC(CNC(=O)[C@H](O)[C@@H](O)C(=O)N2CCCC2c2cccc(Cl)c2)CC1` (mixture of isomers), in series [1], the Ki was 4 nM.

Turning to `Cc1nc2ccccc2n1-c1ccc(CNC(=O)[C@H](O)[C@@H](O)C(=O)N2CCCC2c2cccc(Cl)c2)cc1` (mixture of isomers), in series [1], the Ki turned out to be 296 nM.

In the case of `O=C(NCc1ccc(Cc2ccc(Cl)cc2)s1)[C@H](O)[C@@H](O)C(=O)N1CCC[C@@H]1c1cccc(Cl)c1`, in [1], the inhibition constant (Ki) is 37 nM. For the compound `O=C(NCc1ccc(Cc2ccccc2)s1)[C@H](O)[C@@H](O)C(=O)N1CCC[C@@H]1c1cccc(Cl)c1`, in [1], the affinity corresponds to a Ki of 20 nM. On the same count and under the same terms, next, `N#Cc1ccccc1N1CC2C(CNC(=O)[C@H](O)[C@@H](O)C(=O)N3CCC[C@@H]3c3ccccc3)C2C1` (stereo partly specified): 12 nM. Take `O=C(NCc1ccc(-c2ccccc2)cc1)[C@H](O)[C@@H](O)C(=O)N1CCC[C@@H]1c1ccccc1`: the inhibition constant Ki in series [1] stood at 22 nM. In series [1], `O=C(NCc1cc(Cc2ccccc2)cs1)[C@H](O)[C@@H](O)C(=O)N1CCCC1c1cccc(Cl)c1` (stereo partly specified) displayed an inhibition constant Ki of 45 nM. In series [1], `O=C(NCc1ccc(-c2cscn2)cc1)[C@H](O)[C@@H](O)C(=O)N1CCCC1c1cccc(Cl)c1` (mixture of isomers) had an inhibition constant (Ki) of 18 nM. Same read-out and setting: next, `Cc1nc2ccccc2n1Cc1ccc(CNC(=O)[C@H](O)[C@@H](O)C(=O)N2CCCC2c2ccccn2)s1` (mixture of isomers): 8 nM; `O=C(NCc1ccc(-c2cccnc2)cc1)[C@H](O)[C@@H](O)C(=O)N1CCC[C@@H]1c1ccccc1`: 36 nM; `N#Cc1cnccc1-c1ccc(CNC(=O)[C@H](O)[C@@H](O)C(=O)N2CCC[C@@H]2c2ccccc2)cc1`: 5 nM.

A word on the Ki: it is a measure of affinity in units of concentration, obtained from inhibition or displacement. Read a high Ki as lower affinity. Usually inhibition stands for the relative decrease from the control value, in per cent. Read a low inhibition as a weak effect. For orientation: AUC means the area under the concentration-time curve, a measure of exposure. Read a high AUC as high exposure. Broadly, the bioavailability is the share of a dose that reaches the circulation, judged against a reference dose that is usually intravenous. Broadly, the clearance is a measure of how efficiently the substance is removed, as volume per time. A higher clearance goes with a high capacity for elimination. The term half-life denotes the time in which the quantity being followed falls by half. High values mean slow loss, low ones fast loss.
